Source: patent US10265286B2, “Sequelae of cardiopulmonary bypass-induced pulmonary injury” (Vanderbilt University, priority 2016, dated 2019)

Experiments:
[1] = Randomized placebo controlled intravenous citrulline study, 77 patients (plasma citrulline target); assay type: in vivo, human; conditions: citrulline removed by hemofiltration during CPB
Text: An intravenous citrulline study conducted was a randomized, placebo controlled, double blind study with the primary clinical outcome being length of mechanical ventilation postoperatively and secondarily the incidence of postoperative pulmonary hypertension between the 2 treatment groups (citrulline vs placebo).
A total of 77 patients were enrolled at Vanderbilt Children's Hospital. Patients were screened based on the surgical schedule. Based on this schedule, patients undergoing one of the 5 planned cardiac surgeries included in this study were screened (patients undergoing the Norwood procedure are now excluded at the recommendation of the DSMB).

[2] = Phase IB study: postoperative invasive mechanical ventilation; assay type: in vivo, human; conditions: end of surgery until last extubation, FIG. 20
[3] = Intravenous citrulline dose escalation safety (adverse effects, hypotension); assay type: in vivo, human
Experimental: The initial goal was to test the safety and pharmacokinetics of three doses of intravenous citrulline in children undergoing surgical repair of specific congenital heart defects. […] An adverse drop in mean arterial pressure was defined as a greater than a twenty percent decrease from baseline. The baseline postoperative mean arterial blood pressure was calculated as the average of mean arterial blood pressure measurements collected every 5 minutes for the 30 minutes immediately preceding the administration of the postoperative dose or infusion.

[4] = tested on: human vascular endothelial cells; experiment: Nitric oxide production by cultured human vascular endothelial cells (FIG. 23); assay type: cell-based; conditions: cells stimulated with acetylcholine; nitrate/nitrites by Seiver's system
Experimental: These agents were administered to cultured human vascular endothelial cells stimulated with acetylcholine. Measurement of nitric oxide was through a Seiver's system of nitrate/nitrites.

[5] = Phase IB study: length of time on inotropes and inotrope score; assay type: in vivo, human
Text: The inotrope dose should be monitored post operatively from the time of PCCU admission using the following scoring system:
• =total inotrope score See, e.g., Hoffman, et al. Circulation (2003) 107: 996-1002. A decrease in the inotrope score would be a positive postoperative outcome.
In FIG. 21, data are defined as the time between the start and end times of inotrope use. All missing or 0 total inotrope scores prior to the first measured score are set to 0 and are therefore not considered as being on inotropes. The total inotrope score is considered, which is calculated on the basis of Dopamine, Dobutamine, Milrinone, Epinephrine, Phenylephrine, and Norepinephrine. The length of time on inotropes of patients with no use of inotropes is set to 0 hours (not censored).
The length of time on IV inotropes was documented from the time of first use after surgery until completion of the study medication at 48 hours, i.e. the duration of inotrope use was maximally 48 hours in the current analysis. Patients still receiving inotropes at hour 48 after surgery were censored. The average duration of intravenous (IV) inotrope use was clearly lower in the citrulline group than in the placebo group (Table 12). However, statistical significance for the between-treatment difference was not reached.

[6] = Phase IB study: safety (adverse events, bleeding, laboratory, hemodynamics); assay type: in vivo, human
Experimental: Primary safety assessments included hemodynamic monitoring to identify clinically significant hypotension using age-specific limits. Adverse event information was collected, and postoperative bleeding was recorded.
Further safety, laboratory, and clinical assessments were performed from baseline to discharge, secondary clinical variables included: postoperative mechanical ventilation, duration of total respiratory support, hemodynamic improvement, postoperative PVT by echocardiogram, serum creatinine and liver enzymes, inotrope score, duration of chest tube usage, length of intensive care unit stay, length of hospitalization and survival.

[7] = Phase IB study: plasma citrulline concentrations (Example 10A); assay type: in vivo, human; conditions: for Number of samples with Citrulline >100 μmol/L / Number of samples with Citrulline ≤100 μmol/L: all samples except baseline
Experimental: (§1) Twenty two (22) patients were enrolled and treated. Patients received an IV citrulline bolus of 150 mg/kg or placebo at the initiation of CPB, followed by the addition of L-citrulline at a concentration of 200 μmol/L or placebo to the filtration or hemoconcentration replacement fluid used during CPB. A citrulline bolus of 20 mg/kg was administered 30 minutes after decannulation from CPB, immediately followed by a 9-mg/kg/hr continuous infusion of citrulline or placebo for 48 hours. Study participation ended at discharge or at Day 28 whichever came first.
(§2) Plasma citrulline concentration levels were the primary PK variable; these were assessed in blood samples collected at 7 perioperative time points. Secondary PK variables were concentrations of arginine and nitric oxide (NO) metabolites in the same sample set. PK values were compared between groups.
The citrulline concentration levels during and after the CPB procedure was the PK parameter of interest in this study. The target level in patients treated with intravenous citrulline was a plasma citrulline level of >100 μmol/L during the immediate follow-up period after CPB. Plasma blood collection was performed at 7 perioperative time points: at baseline before surgery, during CPB (post-bolus 1), and after surgery/CPB at the time points 0 hours (pre bolus 2), 6 hours, 12 hours, 24 hours, and 48 hours.

[8] = Phase IB study: plasma nitric oxide (NO metabolite) concentrations; assay type: in vivo, human; conditions: each of the treatment groups
Experimental: as §1, §2

[9] = Phase IB study: postoperative invasive mechanical ventilation; assay type: in vivo, human; conditions: for patients extubated in the operating room: Site 02
Experimental: The duration of postoperative invasive mechanical ventilation was derived as the time in hours from separation from cardiopulmonary bypass until endotracheal extubation. If a patient required reintubation within 24 hours after extubation, the reintubation time was added in the main analysis. In a second analysis, the reintubation time was not included.

[10] = all i.v. inotropes postoperatively
[11] = revised IV protocol, Post Bolus 1
[12] = revised IV protocol, Pre Bolus 2

NC(=O)NCCCC(N)C(=O)O (stereo not drawn) [Citrulline, 2-amino-5-(carbamoylamino)pentanoic acid]
attainment of sustained target plasma citrulline level of 100 μmol/L [1]: did not reach the therapeutic sustained target plasma citrulline level | duration of mechanical ventilation versus placebo (Kaplan-Meier) [2]: reduced duration of mechanical ventilation | adverse side effects ([3]; 50 mg/kg IV): No adverse side effects were noted | adverse side effects ([3]; 100 mg/kg IV): no adverse side effects were noted | adverse effects ([3]; IV doses 200, 400, and 600 mg/kg): no adverse effects were noted | adverse effects including hypotension ([3]; any of 50, 100, 150 mg/kg IV): no adverse effects including hypotension | adverse side effects ([3]; bolus 150 mg/kg plus continuous infusion 9 mg/kg/hr): No adverse side effects were noted | significant adverse events ([3]; bolus 150 mg/kg plus infusion 9 mg/kg/hour for 48 hours, 9 patients): one significant adverse event but it was not related to the use of IV citrulline | production of nitric oxide [4]: increases the production of NO | Total inotrope score, Diff (CI) placebo vs citrulline [5, 10]: 559.8 (−193.5, 1313.2) | Total inotrope score, Median [5, 10]: 650.0 | Total inotrope score, Range [5, 10]: 0.0-2351.0 | Total inotrope score, Mean ± SD ([5]; all i.v. inotropes postoperatively, N = 11): 602.7 ± 727.86 | Length of time on i.v. inotropes, Diff (CI) placebo vs citrulline ([5]; maximally 48 hours): 12.7 (−2.6, 28.1) hours | Length of time on i.v. inotropes, Median ([5]; maximally 48 hours): 16.0 h | Length of time on i.v. inotropes, Range ([5]; maximally 48 hours): 0.0 to 47.0 h | Length of time on i.v. inotropes, Mean ± SD ([5]; maximally 48 hours, N = 11): 13.4 ± 14.78 h | AE hypotension ([6]; citrulline group): 27% | AE tachypnea ([6]; citrulline group): 27% | AE hypertension ([6]; citrulline group, placebo 36%): 27% | AE pleural effusion ([6]; citrulline group, placebo 45%): 36% | patients with at least one treatment-emergent AE ([6]; citrulline group, placebo 73%): 100% | Heart rate ([6]; citrulline vs placebo): consistently higher in the placebo group than the citrulline group | AE leading to death, SAE, AE leading to discontinuation ([6]; in vivo): No AE leading to death, no SAE, and no AE leading to discontinuation | impact on oxygen saturation or systemic arterial blood pressure ([6]; in vivo): no noteworthy impact | post-operative bleeding (length and volume of chest tube drainage) versus placebo ([6]; in vivo): no difference in post-operative bleeding | BUN ([6]; stable in the placebo group, p=0.0111): increased from baseline through to Day 2 | Number of samples with Citrulline >100 μmol/L ([7]; Site 01): 25 | Number of samples with Citrulline ≤100 μmol/L ([7]; Site 01): 2 | Number of samples with Citrulline >100 μmol/L ([7]; Site 02): 29 | Number of samples with Citrulline ≤100 μmol/L ([7]; Site 02): 3 | samples with plasma citrulline levels <100 μmol/L ([7]; of the total of 59 samples, excluding baseline samples): 5 | Citrulline concentrations, Mean ± SD ([7]; revised IV protocol, N = 11, Baseline): 200.9 ± 569.89 µmol/L | Citrulline concentrations, Median ([7]; revised IV protocol, Baseline): 32.0 µmol/L | Citrulline concentrations, Mean ± SD ([7]; revised IV protocol, Hour 6): 167.8 ± 117.67 µmol/L | Citrulline concentrations, Median ([7]; revised IV protocol, Hour 6): 138.0 µmol/L | Citrulline concentrations, Mean ± SD ([7]; revised IV protocol, Hour 12): 127.1 ± 16.18 µmol/L | Citrulline concentrations, Median ([7]; revised IV protocol, Hour 12): 125.0 µmol/L | Citrulline concentrations, Mean ± SD ([7]; revised IV protocol, Hour 24): 125.3 ± 38.74 µmol/L | Citrulline concentrations, Median ([7]; revised IV protocol, Hour 24): 114.0 µmol/L | Citrulline concentrations, Mean ± SD [7, 11]: 2405.9 ± 1517.4 µmol/L | Citrulline concentrations, Median [7, 11]: 2577.0 µmol/L | Citrulline concentrations, Mean ± SD [7, 12]: 890.9 ± 1077.5 µmol/L | Citrulline concentrations, Median [7, 12]: 573.0 µmol/L | plasma citrulline levels achieved ([7]; revised IV protocol, target level 100 μmol/L): > 100 µmol/L | plasma nitric oxide levels across the sampling time points [8]: remained more or less unchanged | Duration of invasive mechanical ventilation, Diff (CI) placebo vs citrulline ([9]; Re-intubation time excluded): 19.5 (1.9, 37.2) hours | Duration of invasive mechanical ventilation, Mean ± SD ([9]; Re-intubation time excluded): 5.1 ± 8.15 h | Duration of invasive mechanical ventilation, Median ([9]; Re-intubation time excluded): 0.0 h | Duration of invasive mechanical ventilation, Range ([9]; Re-intubation time excluded): 0.0 to 22.5 h | Duration of invasive mechanical ventilation, Diff (CI) placebo vs citrulline ([9]; Re-intubation time included): 32.0 (−9.5, 73.4) hours | Duration of invasive mechanical ventilation, Median ([9]; Re-intubation time included): 0.0 h | Duration of invasive mechanical ventilation, Range ([9]; Re-intubation time included): 0.0 to 22.5 h | Duration of invasive mechanical ventilation, Mean ± SD ([9]; Re-intubation time included, N = 11): 5.1 ± 8.15 h | Duration of invasive mechanical ventilation, Mean ± SD ([9]; Re-intubation time included, N = 11, listed as citrulline): 5 h | patients extubated in the operating room ([9]; placebo 2): 6 patients | patients extubated in the operating room ([9]; placebo 33%): 100%
